These results are taken from patent publication US10336735B2, “Small molecule inhibitors of fibrosis” (THE CALIFORNIA INSTITUTE FOR BIOMEDICAL RESEARCH, priority 2014, dated 2019).

Each structure is given as a SMILES string.

The subject of one experiment is primary human lung fibroblasts and primary rodent HSCs. Description: High content imaging assay (α-SMA staining, cell morphology) of fibroblast to myofibroblast transdifferentiation, confirmed by Western blot and RT-PCR. The settings on record: Homo sapiens, Fibroblast; imaging and western based activity. The text has this: High content imaging assays have been established, using primary human lung fibroblasts and primary rodent HSCs, that enable the identification of small molecules that either inhibit myofibroblast formation/activation or induce the reversion of activated myofibroblasts to a quiescent fibroblast state. Conditions, involving serum starvation and subsequent TGF-β treatment, have been identified that facilitate robust in vitro transdifferentiation in a miniaturized (384 well plate) format that is amenable to high throughput small molecule screening. The inhibition assay is based on α-SMA immunofluorescent staining and cell morphology changes associated with fibroblast to myofibroblast transdifferentiation, Using the selective ALK-5 TGF-β1 receptor inhibitor ([…]) as a positive control, the inhibition assay has been used to initiate a screen of a collection of ˜100,000 small molecules that consists of bioactive small molecules and a diversity set that has been assembled based on 2D and 3D structural diversity and inherent “drug-likeness” properties. Preliminary screening led to the identification of multiple previously identified anti-fibrotic molecules.
A high content imaging assay, based on α-SMA staining and cell morphological changes associated with fibroblast to myofibroblast transdifferentiation, was established using primary human lung fibroblasts and primary rodent HSCs. Conditions, involving serum starvation and subsequent TGF-β treatment, were identified that facilitate robust in vitro transdifferentiation in a miniaturized (384 well plate) format that is amenable to high throughput small molecule screening. A selective ALK-5 TGF-β1 receptor inhibitor (SB-431542) was used as a positive control. […] This assay was used to evaluate compounds of Formula (I), (Ia), (II), (IIa), (III), (IIIa), (IV), (IVa), (IVb), (V), (Va), (VI), (VIa), (VIb), (VIc), (VII), (VIIa), (VIII), (VIIIa), (IX), (IXa), (X), or (Xa) generated from medicinal chemistry efforts.
The activity of Itraconazole and compounds of Formula (I), (Ia), (II), (IIa), (III), (IIIa), (IV), (IVa), (IVb), (V), (Va), (VI), (VIa), (VIb), (VIc), (VII), (VIIa), (VIII), (VIIIa), (IX), (IXa), (X), or (Xa) was confirmed by analyzing changes in gene expression of multiple genes associated with fibroblast to myofibroblast transdifferentiation using biochemical methods (i.e., Western blot and RT-PCR). These 4-day assays were used to evaluate sets of 6 compounds at a time in 4-point dose response fashion.
The EC50 for (imaging and western based) activity is graded as: +++=<500 nM; ++=500 nM to 5 μM; +=5 to 30 μM); −=>30 μM; NT=Not Tested.
On the technique in general: A western blot detects proteins with antibodies after separation by electrophoresis.
Usually EC50 stands for the midpoint of the concentration-response curve. A low value points to higher potency in that assay. Compound `CCC(C)n1ncn(-c2ccc(N3CCN(c4ccc(OC[C@@H]5CO[C@@](Cc6ccnnc6)(c6cccc(Cl)c6)O5)cc4)CC3)cc2)c1=O` (some centres unmarked) [Compound 124] yielded an EC50 of under 500 nM.

In the case of `CCC(CC)n1ncn(-c2ccc(N3CCN(c4ccc(OC[C@@H]5CO[C@@](Cn6cccn6)(c6ccc(C#N)cc6C)O5)cc4)CC3)cc2)c1=O` [Compound 176], the half-maximal effective concentration (EC50) was under 500 nM.

`CC[C@@H](C)n1ncn(-c2ccc(N3CCN(c4ccc(OC[C@@H]5CO[C@@](Cn6cccn6)(c6ccc(C#N)cc6C)O5)cc4)CC3)cc2)c1=O` [Compound 173] returned a concentration giving a half-maximal response (EC50) of 500 to 5000 nM.

Compound `O=c1n(-c2ccc(N3CCN(c4ccc(OC[C@@H]5CO[C@@](Cn6nccn6)(c6ccccc6)O5)cc4)CC3)cc2)cnn1CC1CCCC1` [Compound 20] returned an EC50 of 5000 to 30000 nM.

As to `CCC(C)n1ncn(-c2ccc(N3CCN(c4ccc(OC[C@@H]5CO[C@@](Cc6ccnnc6)(c6cccc(C(F)(F)F)c6)O5)cc4)CC3)cc2)c1=O` (some centres unmarked) [Compound 133], the EC50 is under 500 nM.

Compound `CC[C@@H](C)n1ncn(-c2ccc(N3CCN(c4ccc(OC[C@H]5CO[C@](Cn6nccn6)(c6ccccc6)O5)cc4)CC3)cc2)c1=O` [Compound 182, 4-(4-(4-(4-(((2R,4S)-2-((2H-1,2,3-triazol-2-yl)methyl)-2-phenyl-1,3-dioxolan-4-yl)methoxy)phenyl)piperazin-1-yl)phenyl)-(R)-1-sec-butyl-1H-1,2,4-triazol-5(4H)-one] showed an EC50 of under 500 nM.

The compound `CCC(C)n1ncn(-c2ccc(N3CCN(c4ccc(OC[C@@H]5CO[C@@](Cn6ccc(=O)cc6)(c6ccc(Cl)cc6Cl)O5)cc4)CC3)cc2)c1=O` (some centres unmarked) [Compound 41] showed an EC50 of under 500 nM.

The compound `Cc1cc(C#N)ccc1[C@]1(Cn2nccn2)OC[C@@H](COc2ccc(N3CCN(c4ccc(-n5cnn(CC6CCCC6)c5=O)cc4)CC3)cc2)O1` [Compound 25] had an EC50 of 500 to 5000 nM.

Compound `CCC(C)n1ncn(-c2ccc(N3CCN(c4ccc(OC[C@@H]5CO[C@@](Cn6nccn6)(c6ccccc6)O5)cc4C#N)CC3)cc2)c1=O` (some centres unmarked) [Compound 66] had an EC50 of under 500 nM.

For `CC[C@H](C)n1ncn(-c2ccc(N3CCN(c4ccc(OC[C@@H]5CO[C@@](Cn6cccn6)(c6ccc(C#N)cc6C)O5)cc4)CC3)cc2)c1=O` [Compound 172], the EC50 was 500 to 5000 nM.

The compound `CCC(C)n1ncn(-c2ccc(N3CCN(c4ccc(OC[C@@H]5CO[C@](Cc6ccnnc6)(c6ccccc6Cl)O5)cc4)CC3)cc2)c1=O` (some centres unmarked) [Compound 105] had an EC50 of under 500 nM.

Compound `CC(C)n1ncn(-c2ccc(N3CCN(c4ccc(OC[C@@H]5CO[C@@](Cn6nccn6)(c6ccccc6)O5)cc4)CC3)cc2)c1=O` [Compound 18] registered an EC50 of 5000 to 30000 nM.

With `CCC(C)n1ncn(-c2ccc(N3CCN(c4ccc(OC[C@@H]5CO[C@@](Cc6ccnnc6)(c6ccc(Cl)c(Cl)c6)O5)cc4)CC3)cc2)c1=O` (some centres unmarked) [Compound 126], the EC50 is under 500 nM.

With `CC[C@@H](C)n1ncn(-c2ccc(N3CCN(c4ccc(OC[C@H]5CO[C@](Cn6cccn6)(c6ccccc6)O5)cc4)CC3)cc2)c1=O` [Compound 171], the EC50 was under 500 nM.

In turn, `CC[C@H](C)n1ncn(-c2ccc(N3CCN(c4ccc(OC[C@@H]5CO[C@@](Cn6nccn6)(c6ccccc6)O5)cc4)CC3)cc2)c1=O` [Compound 180, 4-(4-(4-(4-(((2S,4R)-2-((2H-1,2,3-triazol-2-yl)methyl)-2-phenyl-1,3-dioxolan-4-yl)methoxy)phenyl)piperazin-1-yl)phenyl)-(S)-1-sec-butyl-1H-1,2,4-triazol-5(4H)-one] registered an EC50 of under 500 nM.

`CCC(C)n1ncn(-c2ccc(N3CCN(c4ccc(OC[C@@H]5CO[C@@](Cn6nccn6)(c6cc(Cl)ccc6C)O5)cc4)CC3)cc2)c1=O` (some centres unmarked) [Compound 34] displayed an EC50 of 500 to 5000 nM.

Consider `CCC(C)n1ncn(-c2ccc(N3CCN(c4ccc(OC[C@H]5CO[C@](Cn6nccn6)(c6ccccc6)C5)cc4C#N)CC3)cc2)c1=O` (some centres unmarked) [Compound 149], for which the EC50 was over 30000 nM.

With `CCC(C)n1ncn(-c2ccc(N3CCN(c4ccc(OC[C@@H]5CO[C@@](Cn6cccn6)(c6ccccc6C#N)O5)cc4)CC3)cc2)c1=O` (some centres unmarked) [Compound 90], the EC50 was 500 to 5000 nM.

`CCC(C)n1ncn(-c2ccc(-c3ccc(OC[C@@H]4CO[C@@](Cn5nccn5)(c5ccc(Cl)cc5Cl)O4)cc3)cc2)c1=O` (some centres unmarked) [Compound 8] registered an EC50 of over 30000 nM.

Turning to `CCC(C)n1ncn(-c2ccc(N3CCN(c4ccc(OC[C@@H]5CO[C@@](Cn6cccn6)(c6ccc(C(N)=O)cc6)O5)cc4)CC3)cc2)c1=O` (some centres unmarked) [Compound 100], the EC50 is 500 to 5000 nM.

For `CCC(CC)n1ncn(-c2ccc(N3CCN(c4ccc(OC[C@H]5CO[C@](Cn6nccn6)(c6ccccc6)O5)cc4)CC3)cc2)c1=O` [Compound 160], the EC50 was under 500 nM.

`CC[C@H](C)n1ncn(-c2ccc(N3CCN(c4ccc(OC[C@H]5CO[C@](Cn6cccn6)(c6ccc(C#N)cc6C)O5)cc4)CC3)cc2)c1=O` [Compound 174] yielded an EC50 of 500 to 5000 nM.

`N#Cc1cc(OC[C@H]2CO[C@](Cn3nccn3)(c3ccccc3)C2)ccc1N1CCN(c2ccc(-n3cnn(CC4CCCC4)c3=O)cc2)CC1` [Compound 146]: the EC50 was over 30000 nM.

Consider `CCC(CC)n1ncn(-c2ccc(N3CCN(c4ccc(OC[C@@H]5CO[C@@](Cn6nccn6)(c6ccc(Cl)cc6Cl)O5)cc4F)CC3)cc2)c1=O` [Compound 164], for which the EC50 was under 500 nM.

For the compound `CCC(C)n1ncn(-c2ccc(N3CCN(c4ccc(OC[C@@H]5CO[C@](Cc6ccnnc6)(c6ccc(Cl)c(Cl)c6)O5)cc4)CC3)cc2)c1=O` (some centres unmarked) [Compound 106], the EC50 is under 500 nM.

Compound `CC(CCN)n1ncn(-c2ccc(N3CCN(c4ccc(OC[C@@H]5CO[C@@](Cn6nccn6)(c6ccccc6)O5)cc4)CC3)cc2)c1=O` (some centres unmarked) [Compound 17] returned an EC50 of 5000 to 30000 nM.

Consider `O=c1n(-c2ccc(N3CCN(c4ccc(OC[C@H]5CO[C@](Cn6nccn6)(c6ccc(Cl)cc6Cl)O5)cc4F)CC3)cc2)cnn1CC1CCCC1` [Compound 163], for which the EC50 was under 500 nM.

As for `CCC(CC)n1ncn(-c2ccc(N3CCN(c4ccc(OC[C@@H]5CO[C@@](Cn6cccn6)(c6ccccc6)O5)cc4)CC3)cc2)c1=O` [Compound 166], the half-maximal effective concentration (EC50) was under 500 nM.

`CCC(C)n1ncn(-c2ccc(N3CCN(c4ccc(OC[C@H]5OC[C@](Cn6cncn6)(c6ccc(F)cc6F)O5)cc4)CC3)cc2)c1=O` (mixture of isomers) [compound 200]: the EC50 was under 500 nM.

`CC[C@H](C)n1ncn(-c2ccc(N3CCN(c4ccc(OC[C@@H]5CO[C@](Cn6nccn6)(c6ccccc6)O5)cc4)CC3)cc2)c1=O` [Compound 190]: the EC50 lay in the range of 500 to 5000 nM.

The compound `CCC(C)n1ncn(-c2ccc(N3CCN(c4ccc(OC[C@@H]5CO[C@@](Cn6cccn6)(c6ccccc6Cl)O5)cc4)CC3)cc2)c1=O` (some centres unmarked) [Compound 83] displayed an EC50 of under 500 nM.

For `CCC(C)n1ncn(-c2ccc(N3CCN(c4ccc(OC[C@@H]5CO[C@@](Cn6cccn6)(c6cccc(OC)c6)O5)cc4)CC3)cc2)c1=O` (some centres unmarked) [Compound 86], the EC50 is under 500 nM.

As for `CCC(C)n1ncn(-c2ccc(N3CCN(C[C@@H]4CO[C@@](Cn5nccn5)(c5ccc(Cl)cc5Cl)O4)CC3)cc2)c1=O` (some centres unmarked) [Compound 7], the EC50 is over 30000 nM.

`CCC(C)n1ncn(-c2ccc(N3CCN(c4ccc(OC[C@@H]5CO[C@@](Cn6nccn6)(c6ccc(Cl)cc6Cl)O5)cc4)CC3)cc2F)c1=O` (some centres unmarked) [Compound 70] yielded an EC50 of 500 to 5000 nM.

Still in this experiment, the particulars now being: imaging and western based activity.
Regarding `CCC(CC)n1ncn(-c2ccc(N3CCN(c4ccc(OC[C@@H]5CO[C@@](Cn6nccn6)(c6ccccc6)O5)cc4)CC3)cc2)c1=O` [Compound 21], the EC50 was under 500 nM.
